Test results as given in ChEMBL document CHEMBL5233246, “CT1-3, a novel magnolol-sulforaphane hybrid suppresses tumorigenesis through inducing mitochondria-mediated apoptosis and inhibiting epithelial mesenchymal transition” (Eur J Med Chem, 2020).
Active and inactive are the calls of the source. The calls are words filed in the database; no cut-off is given here.

Tests used:
[1] = test system: NCI-H460; assay: Cytotoxicity against human NCI-H460 cells assessed as reduction in cell viability at 10 uM incubated for 8 hr by CCK-8 assay; type: functional, cell-based
[2] = test system: LoVo; assay: Inhibition of cell migration in human LoVo cells assessed as downregulation of Snail protein expression at 7.5 uM incubated for 24 hrs by western blot analysis; type: functional, cell-based
[3] = test system: AGS; assay: Inhibition of colony formation in human AGS cells incubated for 48 hrs by Giemsa staining based microscopy; type: functional, cell-based
[4] = test system: MDA-MB-231; assay: Antitumor activity against human MDA-MB-231 cells xenografted in BALB/c mouse assessed as tumor necrosis at 20 mg/kg,ip measured after 28 days; type: functional, organism-based; conditions: time 28.0 day
[5] = test system: LoVo; assay: Inhibition of cell migration in human LoVo cells at 7.5 uM incubated for 24 hrs by crystal violet staining based transwell assay; type: functional
[6] = test system: OVCAR-3; assay: Antiproliferative activity against human OVCAR-3 cells assessed as reduction in cell viability incubated for 24 hrs by CCK-8 assay; type: functional, cell-based; conditions: OVCAR-3, 24 h
[7] = test system: LoVo; assay: Inhibition of cell migration in human LoVo cells assessed as upregulation of E-cadherin protein expression at 7.5 uM incubated for 24 hrs by western blot analysis; type: functional, cell-based
[8] = test system: MCF7; assay: Antiproliferative activity against human MCF7 cells assessed as reduction in cell viability incubated for 24 hrs by CCK-8 assay; type: functional, cell-based; conditions: MCF7, 24 h
[9] = test system: LoVo; assay: Inhibition of colony formation in human LoVo cells incubated for 48 hrs by Giemsa staining based microscopy; type: functional, cell-based
[10] = test system: LoVo; assay: Induction of apoptosis in human LoVo cells assessed as decrease in Bcl-2 protein expression level at 7.5 uM incubated for 24 hrs by western blot assay; type: functional, cell-based
[11] = test system: NCI-H460; assay: Induction of apoptosis in human NCI-H460 cells assessed as increase in ROS level at 10 uM incubated for 8 hrs by H2DCFDA staining based fluorescence microscopic assay; type: functional, cell-based
[12] = test system: NCI-H460; assay: Inhibition of cell migration in human NCI-H460 cells assessed as downregulation of Snail protein expression at 7.5 uM incubated for 24 hrs by western blot analysis; type: functional, cell-based
[13] = test system: NCI-H460; assay: Induction of apoptosis in human NCI-H460 cells assessed as viable cells at 10 uM incubated for 24 hrs by annexin V-FITC/propidium iodide staining based flow cytometry analysis (reference value: 97.9%); type: functional; conditions: read-out: Activity
[14] = test system: NCI-H460; assay: Inhibition of cell invasion in human NCI-H460 cells at 7.5 uM incubated for 24 hrs by matrigel based transwell assay; type: functional
[15] = test system: U-251; assay: Antiproliferative activity against human U-251 cells assessed as reduction in cell viability incubated for 24 hrs by CCK-8 assay; type: functional, cell-based; conditions: U-251, 24 h
[16] = test system: NCI-H460; assay: Inhibition of cell migration in human NCI-H460 cells assessed as upregulation of E-cadherin protein expression at 7.5 uM incubated for 24 hrs by western blot analysis; type: functional, cell-based
[17] = test system: NCI-H460; assay: Inhibition of cell migration in human NCI-H460 cells at 7.5 uM incubated for 24 hrs by crystal violet staining based transwell assay; type: functional
[18] = test system: LoVo; assay: Induction of apoptosis in human LoVo cells assessed as late apoptotic cells at 10 uM incubated for 24 hrs by annexin V-FITC/propidium iodide staining based flow cytometry analysis (reference value: 0.4%); type: functional
[19] = test system: NCI-H460; assay: Induction of apoptosis in human NCI-H460 cells assessed as necrotic cells at 10 uM incubated for 24 hrs by annexin V-FITC/propidium iodide staining based flow cytometry analysis (reference value: 0.9%); type: functional
[20] = Antiproliferative activity against human NCI-H1688 cells assessed as reduction in cell viability incubated for 24 hrs by CCK-8 assay; type: functional, cell-based; conditions: NCI-H1688, 24 h
[21] = test system: SW480; assay: Antiproliferative activity against human SW480 cells assessed as reduction in cell viability incubated for 24 hrs by CCK-8 assay; type: functional, cell-based; conditions: SW480, 24 h
[22] = test system: LoVo; assay: Induction of apoptosis in human LoVo cells assessed as reduction of mitochondrial membrane potential at 10 uM incubated for 8 hrs by JC-1 staining based fluorescence microscopic assay; type: functional, cell-based
[23] = test system: LoVo; assay: Induction of apoptosis in human LoVo cells assessed as increase in Bax protein expression level at 7.5 uM incubated for 24 hrs by western blot assay; type: functional, cell-based
[24] = test system: A549; assay: Inhibition of cell invasion in human A549 cells at 7.5 uM incubated for 24 hrs by matrigel based transwell assay; type: functional
[25] = test system: LoVo; assay: Induction of apoptosis in human LoVo cells assessed as viable cells at 10 uM incubated for 24 hrs by annexin V-FITC/propidium iodide staining based flow cytometry analysis (reference value: 98%); type: functional; conditions: read-out: Activity
[26] = test system: OVCAR-3; assay: Antitumor activity against human OVCAR-3 cells xenografted in BALB/c mouse assessed as reduction in tumor growth at 20 mg/kg,ip measured after 28 days; type: functional, organism-based; conditions: time 28.0 day
[27] = test system: NCI-H460; assay: Induction of apoptosis in human NCI-H460 cells assessed as decrease in Bcl-2 protein expression level at 7.5 uM incubated for 24 hrs by western blot assay; type: functional, cell-based
[28] = test system: NCI-H460; assay: Induction of apoptosis in human NCI-H460 cells assessed as late apoptotic cells at 10 uM incubated for 24 hrs by annexin V-FITC/propidium iodide staining based flow cytometry analysis (reference value: 0.4%); type: functional
[29] = test system: LoVo; assay: Induction of apoptosis in human LoVo cells assessed as necrotic cells at 10 uM incubated for 24 hrs by annexin V-FITC/propidium iodide staining based flow cytometry analysis (reference value: 0.3%); type: functional
[30] = test system: A549; assay: Antitumor activity against human A549 cells xenografted in BALB/c mouse assessed as reduction in tumor growth at 20 mg/kg,ip measured after 28 days; type: functional, organism-based; conditions: time 28.0 day
[31] = test system: NCI-H460; assay: Induction of apoptosis in human NCI-H460 cells assessed as increase in Bax protein expression level at 7.5 uM incubated for 24 hrs by western blot assay; type: functional, cell-based
[32] = test system: NCI-H1650; assay: Antiproliferative activity against human NCI-H1650 cells assessed as reduction in cell viability incubated for 24 hrs by CCK-8 assay; type: functional, cell-based; conditions: NCI-H1650, 24 h
[33] = test system: A549; assay: Induction of apoptosis in human A549 cells assessed as early apoptotic cells at 10 uM incubated for 24 hrs by annexin V-FITC/propidium iodide staining based flow cytometry analysis (reference value: 3.6%); type: functional
[34] = test system: A549; assay: Induction of apoptosis in human A549 cells assessed as necrotic cells at 10 uM incubated for 24 hrs by annexin V-FITC/propidium iodide staining based flow cytometry analysis (reference value: 0.4%); type: functional

## C=CCc1ccc(O)c(-c2cc(CC=C)ccc2OCC[S+]([O-])CCCCN=C=S)c1 (centres undefined)
[1]
  Activity: Active
[2]
  inhibition: Active
[3]
  inhibition: Active
[4]
  Activity: Active
[5]
  inhibition: Active
[6]
  IC50: 5.34 µM
[7]
  inhibition: Active
[8]
  IC50: 12.7 µM
[9]
  inhibition: Active
[10]
  Activity: Active
[11]
  Activity: Active
[12]
  inhibition: Active
[13]
  viability at 10 µM: 15.3%
[14]
  inhibition: Active
[15]
  IC50: 7.75 µM
[16]
  inhibition: Active
[17]
  inhibition: Active
[18]
  Activity: 23.3%
[19]
  Activity: 3.6%
[20]
  IC50: 12.8 µM
[21]
  IC50: 6.07 µM
[22]
  Activity: Active
[23]
  Activity: Active
[24]
  inhibition: Active
[25]
  viability at 10 µM: 22%
[26]
  Activity: Active
[27]
  Activity: Active
[28]
  Activity: 72.9%
[29]
  Activity: 38%
[30]
  Activity: Active
[31]
  Activity: Active
[32]
  IC50: 6.92 µM
[33]
  Activity: 13.9%
[34]
  Activity: 10.3%
